A word on the efflux ratio: it is the permeability from basolateral to apical divided by that in the opposite direction, in the common usage. As usually defined, the IC50 is the point on the concentration scale where inhibition reaches its midpoint. A word on the Papp A→B: it is the apparent permeability from the apical to the basolateral side of a cell layer. Broadly, the Kd is the concentration at which binding is half-saturated. High values mean weaker binding, low ones tighter binding. The term MTD denotes the largest dose that counted as tolerated.

Experimental findings from ChEMBL document CHEMBL4376867 (J Med Chem, 2020) are described below.

Data set [1] can be described thus: Efflux ratio of apparent permeability across basolateral to apical membrane over apical to basolateral membrane in human Caco2 cells. The format is ADME, cell-based. As to conditions: Caco-2.
The target in another data set is CDK9/cyclin T1 (Homo sapiens, UniProt P50750). The experiment in a line: Inhibition of recombinant full length human His-tagged CDK9/CyclinT1 expressed in baculovirus expression system using biotin-labelled Ttds-YISPLKSPYKISEG peptide as substrate preincubated with enzyme for 15 mins followed by substrate addition and further incubated for 25 mins presence of 10 uM of ATP by TR-FRET assay. A general note: In TR-FRET formats the signal depends on donor and acceptor labels being close together.

The next data set deals with T1, IKK epsilon/TBK1 (Homo sapiens, UniProt Q14164+Q9UHD2).
T1 sequence (Q14164 whole entry): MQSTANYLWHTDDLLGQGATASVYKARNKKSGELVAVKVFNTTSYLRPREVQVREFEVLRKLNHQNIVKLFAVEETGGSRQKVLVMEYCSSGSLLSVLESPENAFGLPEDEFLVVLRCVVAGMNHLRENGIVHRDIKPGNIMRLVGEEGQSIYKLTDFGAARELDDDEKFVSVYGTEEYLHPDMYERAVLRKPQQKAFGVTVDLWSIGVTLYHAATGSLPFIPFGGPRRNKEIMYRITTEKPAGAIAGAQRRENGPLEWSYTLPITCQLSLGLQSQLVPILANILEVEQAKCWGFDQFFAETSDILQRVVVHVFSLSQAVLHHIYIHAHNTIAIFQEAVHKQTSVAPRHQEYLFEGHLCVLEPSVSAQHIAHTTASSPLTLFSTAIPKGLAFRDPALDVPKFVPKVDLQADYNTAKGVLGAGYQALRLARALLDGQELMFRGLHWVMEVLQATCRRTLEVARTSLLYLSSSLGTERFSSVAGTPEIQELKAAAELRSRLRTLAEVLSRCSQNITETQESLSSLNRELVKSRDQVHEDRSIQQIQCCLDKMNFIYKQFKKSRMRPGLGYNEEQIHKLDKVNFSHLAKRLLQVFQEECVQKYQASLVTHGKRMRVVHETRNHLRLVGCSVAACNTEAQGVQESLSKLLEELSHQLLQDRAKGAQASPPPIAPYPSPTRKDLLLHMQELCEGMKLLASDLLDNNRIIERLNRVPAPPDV
T1 sequence (Q9UHD2 whole entry): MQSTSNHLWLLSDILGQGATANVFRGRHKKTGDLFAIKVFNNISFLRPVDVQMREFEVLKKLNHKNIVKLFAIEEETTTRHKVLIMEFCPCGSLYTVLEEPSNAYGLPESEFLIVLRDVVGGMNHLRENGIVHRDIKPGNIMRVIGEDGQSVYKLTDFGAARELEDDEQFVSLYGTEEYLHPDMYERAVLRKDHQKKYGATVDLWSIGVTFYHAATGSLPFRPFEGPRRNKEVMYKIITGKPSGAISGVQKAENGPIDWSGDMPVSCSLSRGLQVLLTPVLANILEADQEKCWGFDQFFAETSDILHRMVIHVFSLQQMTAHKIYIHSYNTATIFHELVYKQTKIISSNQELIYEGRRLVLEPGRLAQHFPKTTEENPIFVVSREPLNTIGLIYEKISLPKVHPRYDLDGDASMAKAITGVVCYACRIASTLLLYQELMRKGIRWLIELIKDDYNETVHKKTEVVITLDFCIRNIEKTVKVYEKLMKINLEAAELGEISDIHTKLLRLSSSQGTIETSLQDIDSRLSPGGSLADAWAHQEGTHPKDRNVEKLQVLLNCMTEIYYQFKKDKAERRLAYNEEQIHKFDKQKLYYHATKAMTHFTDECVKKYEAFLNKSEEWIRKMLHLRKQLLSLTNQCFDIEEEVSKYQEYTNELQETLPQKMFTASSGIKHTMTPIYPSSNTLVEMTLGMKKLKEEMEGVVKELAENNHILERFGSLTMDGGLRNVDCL
The experiment in a line: Inhibition of IKKepsilon/TBK1 in human MDB-MB-231 cells transduced with lentiviral vector expressing human IRF3 assessed as decrease in poly(I:C)-stimulated IRF3 phosphorylation at S385/386 residues preincubated for 1 hr followed by poly(I:C) addition and measured after 1 hr. The format is cell-based.

Data set [2] deals with T2, Serine/threonine-protein kinase TBK1 (Homo sapiens, UniProt Q9UHD2).
T2 sequence (Q9UHD2 whole entry): T1 sequence (Q9UHD2 whole entry)
The experiment in a line: Inhibition of recombinant full length human N-terminal His-tagged TBK1 using biotin-labelled Ahx-GDEDFSSFAEPG peptide as substrate preincubated with enzyme for 15 mins followed by substrate addition and further incubated for 30 mins in presence of 1 mM of ATP by TR-FRET assay.

The target in data set [3] is T3, Inhibitor of nuclear factor kappa-B kinase subunit epsilon (Homo sapiens, UniProt Q14164).
T3 sequence (Q14164 whole entry): T1 sequence (Q14164 whole entry)
The experiment in a line: Inhibition of recombinant full length human C-terminal GST-tagged IKKepsilon expressed in baculovirus expression system using biotin-labelled Ahx-GDEDFSSFAEPG peptide as substrate preincubated with enzyme for 15 mins followed by substrate addition and further incubated for 30 mins in presence of 10 uM of ATP by TR-FRET assay.

Data set [4] in a line: Apparent permeability of compound across apical to basal membrane in human Caco2 cells at 2 uM in DMSO after 2 hrs by LC-MS/MS analysis. Format: ADME, cell-based. As to conditions: Caco-2. (In general: Passage across Caco-2 layers is used to estimate intestinal permeability.)
Data set [5] addresses T2, Serine/threonine-protein kinase TBK1.
The target of data set [6] is T4, Serine/threonine-protein kinase 17A (Homo sapiens, UniProt Q9UEE5).
T4 sequence (Q9UEE5 whole entry): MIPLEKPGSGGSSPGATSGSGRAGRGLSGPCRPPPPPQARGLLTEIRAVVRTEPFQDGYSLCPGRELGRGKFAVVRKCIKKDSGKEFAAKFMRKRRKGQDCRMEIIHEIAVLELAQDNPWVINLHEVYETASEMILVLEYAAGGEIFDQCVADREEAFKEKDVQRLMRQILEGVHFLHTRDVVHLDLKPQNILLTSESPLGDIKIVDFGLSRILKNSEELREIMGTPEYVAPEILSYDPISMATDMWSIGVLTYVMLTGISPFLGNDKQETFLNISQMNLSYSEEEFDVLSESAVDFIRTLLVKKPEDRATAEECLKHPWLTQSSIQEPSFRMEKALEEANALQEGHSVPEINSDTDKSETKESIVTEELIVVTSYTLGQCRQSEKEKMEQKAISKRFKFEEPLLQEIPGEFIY
The experiment in a line: Inhibition of wild-type human partial length DRAK1 (R32 to E363 residues) expressed in bacterial expression system by Kinomescan method.

Data set [7] can be described thus: Toxicity in NMRI mouse xenografted with human SK-MEL-2 cells assessed as maximum tolerated dose administered orally bid for 35 days. To be noted: in vivo, po. (A xenograft is tissue or cells of one species grown in another, often human tumour cells in immunodeficient mice.)

Sequence of CDK9/cyclin T1 (O60563 whole entry): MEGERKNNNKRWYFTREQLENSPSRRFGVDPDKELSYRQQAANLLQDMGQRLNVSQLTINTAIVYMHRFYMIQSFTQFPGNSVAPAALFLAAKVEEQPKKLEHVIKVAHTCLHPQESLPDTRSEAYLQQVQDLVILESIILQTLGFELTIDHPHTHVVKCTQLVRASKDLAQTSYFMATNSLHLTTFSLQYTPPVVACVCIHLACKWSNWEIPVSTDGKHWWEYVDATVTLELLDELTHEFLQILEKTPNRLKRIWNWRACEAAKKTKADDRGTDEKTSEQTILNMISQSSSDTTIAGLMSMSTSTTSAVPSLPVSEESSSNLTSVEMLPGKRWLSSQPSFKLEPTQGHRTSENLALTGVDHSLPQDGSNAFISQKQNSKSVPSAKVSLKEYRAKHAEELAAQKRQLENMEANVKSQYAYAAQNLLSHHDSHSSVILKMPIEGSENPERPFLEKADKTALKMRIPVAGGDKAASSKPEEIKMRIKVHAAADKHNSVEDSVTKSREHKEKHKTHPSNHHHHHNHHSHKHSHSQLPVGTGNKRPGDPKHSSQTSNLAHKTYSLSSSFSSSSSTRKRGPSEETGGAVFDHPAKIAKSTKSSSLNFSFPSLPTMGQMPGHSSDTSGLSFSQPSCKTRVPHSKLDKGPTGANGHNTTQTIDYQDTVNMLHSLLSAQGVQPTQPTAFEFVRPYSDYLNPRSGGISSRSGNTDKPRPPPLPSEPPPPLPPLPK
Sequence of CDK9/cyclin T1 (P50750 whole entry): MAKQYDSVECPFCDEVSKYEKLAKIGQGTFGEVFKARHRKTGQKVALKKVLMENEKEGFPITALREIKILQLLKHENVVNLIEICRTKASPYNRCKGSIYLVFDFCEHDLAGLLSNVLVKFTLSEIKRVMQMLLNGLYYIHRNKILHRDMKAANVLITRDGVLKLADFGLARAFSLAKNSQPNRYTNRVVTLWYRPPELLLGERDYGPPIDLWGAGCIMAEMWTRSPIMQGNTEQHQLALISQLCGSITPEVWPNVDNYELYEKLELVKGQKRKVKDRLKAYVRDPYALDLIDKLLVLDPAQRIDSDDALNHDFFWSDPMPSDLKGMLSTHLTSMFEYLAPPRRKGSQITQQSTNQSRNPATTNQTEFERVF

For the molecule `C[C@H](c1ccnc(Nc2nc3ccc(-c4cnn(CC5CC5)c4)cc3[nH]2)c1)N1CCN(C(=O)CC(F)(F)F)CC1`, the efflux ratio in [1] came out at 7.5. For the same molecule, the IC50 is greater than 20000 nM at CDK9/cyclin T1; 131 nM at IKK epsilon/TBK1; 18 nM in [2]; 6 nM in [3]; 1 nM in [5]. For the same molecule, the Papp A→B at 2 h, 2 µM in [4] was 1.6 ×10⁻⁶ cm/s. For the same molecule, binding in data set [6] was put at a Kd of 5 nM.

With `C[C@H](c1ccnc(Nc2nc3ccc(-c4cnn(CC5CCC5)c4)cc3[nH]2)c1)N1CCN(C(=O)CC(F)(F)F)CC1`, the IC50 at CDK9/cyclin T1 is greater than 20000 nM; on IKK epsilon/TBK1, 93 nM; in [2], 6 nM; in [3], 4 nM; in data set [5] it was 2 nM; in data set [6] it was 15 nM.

As for `CN(C)c1cc(-c2ccc3nc(Nc4cc(CN5CCN(C(=O)CC(F)(F)F)CC5)ccn4)[nH]c3c2)ncn1`, the IC50 on CDK9/cyclin T1 came to 14400 nM; on IKK epsilon/TBK1, 213 nM; in [2], 167 nM; in [3] it was 10 nM; in data set [5], 9 nM; in [6], 252 nM.

Take `C[C@H](c1ccnc(Nc2nc3ccc(-c4cc(OCC5CC5)ncn4)cc3[nH]2)c1)N1CCN(C(=O)CC(F)(F)F)CC1`: the IC50 at CDK9/cyclin T1 was found to be 16100 nM; at IKK epsilon/TBK1, 66 nM; in data set [2], 5 nM; in data set [3], 4 nM; in [5], 2 nM.

`O=C(CC(F)(F)F)N1CCN(Cc2ccnc(Nc3nc4ccc(-c5cnn(CC6CC6)c5)cc4[nH]3)c2)CC1`: the efflux ratio in [1] was determined as 3.9. The IC50 amounted to 9190 nM on CDK9/cyclin T1; 368 nM at IKK epsilon/TBK1; 137 nM in data set [2]; 7 nM in [3]; 5 nM in [5]. Besides, the Papp A→B at 2 h, 2 µM in data set [4] stood at 3.2 ×10⁻⁶ cm/s.

As to `Cc1cc(-c2ccc3nc(Nc4cc([C@@H](C)N5CCN(C(=O)CC(F)(F)F)CC5)ccn4)[nH]c3c2)ncn1`, the IC50 at CDK9/cyclin T1 came out at 2130 nM; on IKK epsilon/TBK1, 140 nM; in data set [2] it was 17 nM; in [3] it was 4 nM; in data set [5], 2 nM.

For `CC(C)Oc1cncnc1-c1ccc2nc(Nc3cc([C@@H](C)N4CCN(C(=O)CC(F)(F)F)CC4)ccn3)[nH]c2c1`, the IC50 on CDK9/cyclin T1 turned out to be 824 nM; at IKK epsilon/TBK1, 119 nM; in data set [2], 50 nM; in [5], 2 nM.

Take `Cc1noc(-c2ccc3nc(Nc4cc(CN5CCN(C(=O)CC(F)(F)F)CC5)ccn4)[nH]c3c2)n1`: the efflux ratio in [1] stood at 3.4. The IC50 is 455 nM at CDK9/cyclin T1; 2750 nM at IKK epsilon/TBK1; 2270 nM in [2]; 168 nM in data set [3]; 129 nM in [5]. In addition, in [4], the apical-to-basolateral permeability (Papp A→B) at 2 h, 2 µM stood at 4.2 ×10⁻⁶ cm/s. In addition, the Kd in data set [6] came to 9 nM.

As for `Cc1noc(-c2ccc3nc(Nc4cc([C@@H](C)N5CCN(C(=O)CC(F)(F)F)CC5)ccn4)[nH]c3c2)n1`, in [1], the efflux ratio was found to be 0.8. The IC50 on CDK9/cyclin T1 came to 1520 nM; on IKK epsilon/TBK1, 1210 nM; in data set [2], 372 nM; in data set [3] it was 37 nM; in data set [5], 19 nM. Also, the Papp A→B at 2 h, 2 µM in [4] came to 10.8 ×10⁻⁶ cm/s. Besides, the Kd in data set [6] came to 10 nM.

In the case of `COCc1cc(-c2ccc3nc(Nc4cc([C@@H](C)N5CCN(C(=O)CC(F)(F)F)CC5)ccn4)[nH]c3c2)ncn1`, the IC50 was found to be 5110 nM on CDK9/cyclin T1, 2 nM in [3] and 30 nM in data set [6]. The apparent permeability from apical to basolateral (Papp A→B) at 2 h, 2 µM in [4] was found to be 1.4 ×10⁻⁶ cm/s.

As for `CNc1cc(-c2ccc3nc(Nc4cc(CN5CCN(C(=O)CC(F)(F)F)CC5)ccn4)[nH]c3c2)ncn1`, the IC50 at IKK epsilon/TBK1 came out at 1990 nM; in [2] it was 155 nM; in [3], 10 nM; in data set [5], 10 nM; in data set [6] it was 25 nM.

Regarding `C[C@H](c1ccnc(Nc2nc3ccc(-c4cc(N(C)C)ncn4)cc3[nH]2)c1)N1CCN(C(=O)CC(F)(F)F)CC1` [BAY-985], the efflux ratio in data set [1] is 17. Further, the IC50 at IKK epsilon/TBK1 worked out at 74 nM; in data set [2], 30 nM; in data set [3] it was 2 nM; in data set [5] it was 2 nM; in [6] it was 311 nM. In [4], the Papp A→B at 2 h, 2 µM lay within 0.89 to 0.9 ×10⁻⁶ cm/s. The MTD at 840 h in [7] worked out at 200 mg/kg.
